Key:
[1] = Octanol-water partition coefficient, log P of the compound; assay type: physicochemical
[2] = biological target: cGMP-specific 3',5'-cyclic phosphodiesterase (Homo sapiens, UniProt O76074)

Q: With `CCN1C(=O)c2c(nc(C(N)=O)n2Cc2ccc(OC)cc2)N2C1=N[C@@H]1CCC[C@@H]12` as the compound, how does the logP [1] read?
A: 2.47

Q: Which logP [1] does the source give for `CCN1C(=O)c2c(nc(OC)n2Cc2ccc(O)c(Br)c2)N2C[C@@H](Cc3ccccc3)N=C12` here?
A: 5.63

Q: With `CCN1C(=O)c2c(nc(C(=O)NC)n2Cc2ccc(O)c(Cl)c2)N2C1=N[C@@H]1CCC[C@@H]12` as the compound, how does the logP [1] read?
A: 3

Q: Which logP [1] does the source give for `CCN1C(=O)c2c(nc(OC)n2Cc2ccc(O)c(Cl)c2)N2C[C@@H](Cc3ccccc3)N=C12` here?
A: 5.36

Q: For `CCN1C(=O)c2c(nc(OC)n2Cc2ccc(OC)c(C#N)c2)N2C[C@@H](Cc3ccccc3)N=C12`, which logP [1] is on record?
A: 5.1

Q: Which logP [1] does the source give for `CCN1C(=O)c2c(nc(C#Cc3ccccc3)n2Cc2ccc(OC)cc2)N2C1=N[C@@H]1CCC[C@@H]12` here?
A: 5.5

Q: Which logP [1] does the source give for `CCOc1nc2c(n1Cc1ccc(O)c(Cl)c1)C(=O)N(CC)C1=N[C@@H]3CCC[C@@H]3N12` here?
A: 4.4

Q: With `CCN1C(=O)c2c(nc(C(N)=O)n2Cc2ccc(O)c(Cl)c2)N2C[C@@H](Cc3ccccc3)N=C12` as the compound, how does the logP [1] read?
A: 4.06

Q: With `CCN1C(=O)c2c(nc(C#Cc3ccccc3)n2Cc2ccc(Cl)cc2)N2C1=N[C@@H]1CCC[C@@H]12` as the compound, how does the logP [1] read?
A: 6.19

Q: Which logP [1] does the source give for `CCN1C(=O)c2c(nc(OC)n2Cc2ccc(O)c(Cl)c2)N2C1=N[C@@H]1CCC[C@@H]12` here?
A: 4.06

Q: For `CCN1C(=O)c2c(nc(OC)n2Cc2ccc(OC)c(Cl)c2)N2C1=N[C@@H]1CCC[C@@H]12`, which logP [1] is on record?
A: 4.32

Q: For `CCN1C(=O)c2c(nc(C(N)=O)n2Cc2ccc(OC)c(Cl)c2)N2C[C@@H](Cc3ccccc3)N=C12`, which logP [1] is on record?
A: 4.32

Q: For `CCN1C(=O)c2c(ncn2Cc2ccc(OC)c(Cl)c2)N2C1=N[C@@H]1CCC[C@@H]12`, which logP [1] is on record?
A: 3.47

Q: With `CCN1C(=O)c2c(nc(C(=O)NC)n2Cc2ccc(OC)c(Cl)c2)N2C1=N[C@@H]1CCC[C@@H]12` as the compound, how does the logP [1] read?
A: 3.26

Q: With `CCN1C(=O)c2c(nc(OCc3ccccc3)n2Cc2ccc(O)c(Cl)c2)N2C[C@@H](Cc3ccccc3)N=C12` as the compound, how does the logP [1] read?
A: 7.09

Q: With `CCN1C(=O)c2c(nc(C#Cc3ccccc3)n2Cc2ccc(O)cc2)N2C1=N[C@@H]1CCC[C@@H]12` as the compound, how does the logP [1] read?
A: 5.24

Q: For `CCSc1nc2c(n1Cc1ccc(OC)cc1)C(=O)N(CC)C1=N[C@@H]3CCC[C@@H]3N12`, which logP [1] is on record?
A: 4.67

Q: With `CCN1C(=O)c2c(nc(OC)n2Cc2ccc(OC)c(Br)c2)N2C1=N[C@@H]1CCC[C@@H]12` as the compound, how does the logP [1] read?
A: 4.59

Q: With `CCN1C(=O)c2c(nc(OC)n2Cc2ccc(OC)c(Br)c2)N2C[C@@H](Cc3ccccc3)N=C12` as the compound, how does the logP [1] read?
A: 5.89

Q: For `CCOc1nc2c(n1Cc1ccc(OC)cc1)C(=O)N(CC)C1=N[C@@H]3CCC[C@@H]3N12`, which logP [1] is on record?
A: 4.1

Q: For `CCN1C(=O)c2c(ncn2Cc2ccc(OC)c(Br)c2)N2C1=N[C@@H]1CCC[C@@H]12`, which logP [1] is on record?
A: 3.74

Q: Which logP [1] does the source give for `CCN1C(=O)c2c(nc(C(N)=O)n2Cc2ccc(O)cc2)N2C1=N[C@@H]1CCC[C@@H]12` here?
A: 2.2

Q: For `CCOc1nc2c(n1Cc1ccc(OC)c(Cl)c1)C(=O)N(CC)C1=N[C@@H]3CCC[C@@H]3N12`, which logP [1] is on record?
A: 4.66

Q: Which logP [1] does the source give for `CCN1C(=O)c2c(nc(Cc3ccccc3)n2Cc2ccc(C)cc2)N2C1=N[C@@H]1CCC[C@@H]12` here?
A: 5.95

Q: For `CCN1C(=O)c2c(nc(C#N)n2Cc2ccc(OC)cc2)N2C1=N[C@@H]1CCC[C@@H]12`, which logP [1] is on record?
A: 3.59

Q: For `CCN1C(=O)c2c(nc(OC)n2Cc2ccc(O)c(Br)c2)N2C1=N[C@@H]1CCC[C@@H]12`, which logP [1] is on record?
A: 4.33

Q: Which logP [1] does the source give for `CCSc1nc2c(n1Cc1ccc(O)cc1)C(=O)N(CC)C1=N[C@@H]3CCC[C@@H]3N12` here?
A: 4.41

Q: Which logP [1] does the source give for `CCN1C(=O)c2c(nc(Cc3ccccc3)n2Cc2ccccc2)N2C1=N[C@@H]1CCC[C@@H]12` here?
A: 5.47

Q: Which logP [1] does the source give for `CCN1C(=O)c2c(nc(C(=O)OC)n2Cc2ccc(OC)cc2)N2C1=N[C@@H]1CCC[C@@H]12` here?
A: 3.38

Q: With `CCN1C(=O)c2c(nc(C(N)=O)n2Cc2ccc(O)c(Cl)c2)N2C1=N[C@@H]1CCC[C@@H]12` as the compound, how does the logP [1] read?
A: 2.76

Q: With `CCN1C(=O)c2c(nc(C(N)=O)n2Cc2ccc(O)c(Br)c2)N2C1=N[C@@H]1CCC[C@@H]12` as the compound, how does the logP [1] read?
A: 3.03

Q: Which logP [1] does the source give for `CCN1C(=O)c2c(nc(Cc3ccccc3)n2Cc2ccc(Cl)cc2)N2C1=N[C@@H]1CCC[C@@H]12` here?
A: 6.03

Q: With `CCN1C(=O)c2c(nc(C(N)=O)n2Cc2ccc(OC)c(Br)c2)N2C1=N[C@@H]1CCC[C@@H]12` as the compound, how does the logP [1] read?
A: 3.3

Q: Which logP [1] does the source give for `CCN1C(=O)c2c(nc(Cc3ccccc3)n2Cc2ccc3c(c2)OCO3)N2C1=N[C@@H]1CCC[C@@H]12` here?
A: 5.25

Q: For `CCN1C(=O)c2c(nc(Cc3ccccc3)n2Cc2ccc(OC)c(Cl)c2)N2C1=N[C@@H]1CCC[C@@H]12`, which logP [1] is on record?
A: 5.9

Q: With `CCOc1nc2c(n1Cc1ccc(OC)c(Br)c1)C(=O)N(CC)C1=N[C@@H]3CCC[C@@H]3N12` as the compound, how does the logP [1] read?
A: 4.93

Q: For `CCN1C(=O)C2C(N=CN2Cc2ccc(O)c(Br)c2)N2C1=N[C@@H]1CCC[C@@H]12` (some centres undefined), which IC50 [2] is on record?
A: 6.31 nM

Q: Which logP [1] does the source give for `CCN1C(=O)c2c(nc(C(F)(F)F)n2Cc2ccc(O)cc2)N2C1=N[C@@H]1CCC[C@@H]12` here?
A: 4.22

Q: Which IC50 [2] does the source give for `CCN1C(=O)C2C(N=C(OC)N2Cc2ccc(OC)c(Cl)c2)N2C[C@@H](Cc3ccccc3)N=C12` (some centres undefined) here?
A: 1.58 nM
